Tests used:
Assay type in all cases: functional
Aspergillus niger [1] = assay: Antifungal activity against Aspergillus niger after 3 to 4 days by agar diffusion method
Talaromyces marneffei [2] = assay: Antifungal activity against Penicillium marneffei after 3 to 4 days by agar diffusion method
Escherichia coli [3] = assay: Antibacterial activity against Escherichia coli after 24 hrs by broth dilution technique
Escherichia coli [4] = assay: Antibacterial activity against Escherichia coli after 24 hrs by disk diffusion method
Staphylococcus aureus [5] = assay: Antibacterial activity against Staphylococcus aureus after 24 hrs by disk diffusion method
Aspergillus fumigatus [6] = assay: Antifungal activity against Aspergillus fumigatus after 3 to 4 days by agar diffusion method
Klebsiella pneumoniae [7] = assay: Antibacterial activity against Klebsiella pneumoniae after 24 hrs by disk diffusion method
Candida albicans [8] = assay: Antifungal activity against Candida albicans after 48 hrs by twofold broth dilution method
Aspergillus fumigatus [9] = assay: Antifungal activity against Aspergillus fumigatus after 48 hrs by twofold broth dilution method
Pseudomonas aeruginosa [10] = assay: Antibacterial activity against Pseudomonas aeruginosa after 24 hrs by disk diffusion method
[11] = system: Trichophyton mentagrophytes; assay: Antifungal activity against Trichophyton mentagrophytes after 48 hrs by twofold broth dilution method
Staphylococcus aureus [12] = assay: Antibacterial activity against Staphylococcus aureus after 24 hrs by broth dilution technique
Candida albicans [13] = assay: Antifungal activity against Candida albicans after 3 to 4 days by agar diffusion method
Rattus norvegicus [14] = assay: Antiinflammatory activity in Wister albino rat assessed as inhibition of carrageenan-induced paw edema at 50 mg/kg, po administered 30 mins before carrageenan challenge measured after 3 hrs relative to control
Mus musculus [15] = assay: Analgesic activity in albino mouse assessed as response latency time to pain stimulus at 25 mg/kg, po after 3 hrs by hot plate method; parameters: unit not given here
Aspergillus niger [16] = assay: Antifungal activity against Aspergillus niger after 48 hrs by twofold broth dilution method
Streptococcus pyogenes [17] = assay: Antibacterial activity against Streptococcus pyogenes after 24 hrs by disk diffusion method
Talaromyces marneffei [18] = assay: Antifungal activity against Penicillium marneffei after 48 hrs by twofold broth dilution method
Streptococcus pyogenes [19] = assay: Antibacterial activity against Streptococcus pyogenes after 24 hrs by broth dilution technique
Klebsiella pneumoniae [20] = assay: Antibacterial activity against Klebsiella pneumoniae after 24 hrs by broth dilution technique
Pseudomonas aeruginosa [21] = assay: Antibacterial activity against Pseudomonas aeruginosa after 24 hrs by broth dilution technique
Mus musculus [22] = assay: Analgesic activity in albino mouse assessed as response latency time to pain stimulus at 25 mg/kg, po after 1 hr by hot plate method; parameters: unit not given here
Mus musculus [23] = assay: Analgesic activity in albino mouse assessed as response latency time to pain stimulus at 5 mg/kg, ip after 3 hrs by hot plate method; conditions: route intraperitoneal
Mus musculus [24] = assay: Analgesic activity in albino mouse assessed as response latency time to pain stimulus at 5 mg/kg, ip after 1 hr by hot plate method; conditions: route intraperitoneal
[25] = system: Trichophyton mentagrophytes; assay: Antifungal activity against Trichophyton mentagrophytes after 3 to 4 days by agar diffusion method
Rattus norvegicus [26] = assay: Antiinflammatory activity in Wister albino rat assessed as inhibition carrageenan-induced paw edema at 2 mg/kg, po administered 30 mins before carrageenan challenge measured after 3 hrs relative to control

Row | Structure (SMILES) | Diameter of inhibition zone (Aspergillus niger [1]) [mm] | Diameter of inhibition zone (Talaromyces marneffei [2]) [mm] | MIC (Escherichia coli [3]) [microg/cm3] | Diameter of inhibition zone (Escherichia coli [4]) [mm] | Diameter of inhibition zone (Staphylococcus aureus [5]) [mm] | Diameter of inhibition zone (Aspergillus fumigatus [6]) [mm] | Diameter of inhibition zone (Klebsiella pneumoniae [7]) [mm] | MIC (Candida albicans [8]) [microg/cm3] | MIC (Aspergillus fumigatus [9]) [microg/cm3] | Diameter of inhibition zone (Pseudomonas aeruginosa [10]) [mm] | MIC [11] [microg/cm3] | MIC (Staphylococcus aureus [12]) [microg/cm3] | Diameter of inhibition zone (Candida albicans [13]) [mm] | inhibition in vivo at 50 mg/kg (Rattus norvegicus [14]) [%] | Time (Mus musculus [15]) | MIC (Aspergillus niger [16]) [microg/cm3] | Diameter of inhibition zone (Streptococcus pyogenes [17]) [mm] | MIC (Talaromyces marneffei [18]) [microg/cm3] | MIC (Streptococcus pyogenes [19]) [microg/cm3] | MIC (Klebsiella pneumoniae [20]) [microg/cm3] | further results
1 | Fc1cc(-c2nc3scc(-c4ccc(Br)cc4)n3n2)c(Cl)cc1Cl | 9 | 10 | 6.25 | 24 | 21 | 12 | 19 | 12.5 | 12.5 | 29 | >100 | 6.25 | 14 | 25 | 13.9 | 25 | 25 | 25 | 6.25 | 6.25 | MIC (Pseudomonas aeruginosa [21]): 6.25 microg/cm3; Time (Mus musculus [22]): 14.8
2 | CCOC(=O)C1(c2ccccc2)CCN(C)CC1 [MEPERIDINE] |  |  |  |  |  |  |  |  |  |  |  |  |  |  |  |  |  |  |  |  | Time (Mus musculus [23]): 14.3 h; Time (Mus musculus [24]): 16.4 h
3 | Fc1ccc(-c2csc3nc(-c4cc(F)c(Cl)cc4Cl)nn23)cc1 | 21 | 21 | 6.25 | 23 | 18 | 29 | 20 | 6.25 | 6.25 | 28 | 6.25 | 12.5 | 19 | 48.8 | 8.2 | 6.25 | 21 | 6.25 | 6.25 | 6.25 | Diameter of inhibition zone [25]: 17 mm; MIC (Pseudomonas aeruginosa [21]): 6.25 microg/cm3; Time (Mus musculus [22]): 8.3
4 | COc1ccc2c(c1)c(CC(=O)O)c(C)n2C(=O)c1ccc(Cl)cc1 [INDOMETHACIN] |  |  |  |  |  |  |  |  |  |  |  |  |  |  |  |  |  |  |  |  | inhibition in vivo at 2 mg/kg (Rattus norvegicus [26]): 62.9%
5 | Fc1cc(-c2nc3scc(-c4ccc(Cl)cc4Cl)n3n2)c(Cl)cc1Cl | 14 | 12 | 12.5 | 11 | 14 | 8 | 13 | 25 | 25 | 13 | >100 | 12.5 | 10 | 17.2 | 9.6 | 12.5 | 15 | 12.5 | 6.25 | 12.5 | MIC (Pseudomonas aeruginosa [21]): 12.5 microg/cm3; Time (Mus musculus [22]): 8.96
6 | C[C@@H]1[C@H](O)[C@@H](C)/C=C/C=C/C=C/C=C/C=C/C=C/C=C/[C@H](O[C@@H]2O[C@H](C)[C@@H](O)[C@H](N)[C@@H]2O)C[C@@H]2O[C@](O)(C[C@@H](O)C[C@@H](O)[C@H](O)CC[C@@H](O)C[C@@H](O)CC(=O)O[C@H]1C)C[C@H](O)[C@H]2C(=O)O [AMPHOTERICIN B] | 25 | 23 |  |  |  | 21 |  | 6.25 | 6.25 |  | 6.25 |  | 20 |  |  | 12.5 |  | 6.25 |  |  | Diameter of inhibition zone [25]: 19 mm

Reference: ChEMBL document CHEMBL1153872, “Synthesis, analgesic, anti-inflammatory and antimicrobial studies of 2,4-dichloro-5-fluorophenyl containing thiazolotriazoles” (2009)
